Like-named read-outs stand apart in the source and are kept apart here.

The nature of data set [1]: urine volume over 24 h in treated healthy dogs. To be noted: FIG. 3. The data set is classed as in vivo, female Beagle dogs. On the procedure:
(§1) Several criteria were evaluated in order to determine the efficacy of this dosage: • urine volume • water consumption • urinary sodium clearance • urinary potassium clearance • osmolar clearance • free-water clearance • urinary fraction excretion of sodium • urinary fraction excretion of potassium. […] The following measurements are carried out: • →urine: volume, pH, creatinine, osmolarity, sodium, potassium; • →plasma: sodium, potassium, urea, aldosterone.

Data set [2] is described as follows: water consumption over 24 h in treated healthy dogs. Type of data set: in vivo, female Beagle dogs. To be noted: FIG. 4. The procedure: as §1
For data set [3] the following is noted: single administration, healthy rats and dogs; cited from earlier work.
The conditions of data set [4]: prolonged treatments of 14 days; torasemide 0.4 mg/kg/day; cited from earlier work.
For data set [5] the following is noted: cited from earlier work.
For data set [6] the following is noted: 7 days, cited from earlier work; for clinical state of the disease: furosemide 5.13 mg/kg/day or torasemide 0.5 mg/kg/day, oral twice-daily.
The nature of data set [7]: urinary sodium clearance in healthy female Beagle dogs. The data set is classed as in vivo. The procedure: Several criteria were evaluated in order to determine the efficacy of this dosage: • urine volume • water consumption • urinary sodium clearance • urinary potassium clearance • osmolar clearance • free-water clearance • urinary fraction excretion of sodium • urinary fraction excretion of potassium. […] The following measurements are carried out: • →urine: volume, pH, creatinine, osmolarity, sodium, potassium; • →plasma: sodium, potassium, urea, aldosterone. In this experiment, torasemide is tested at two single doses: 0.05 mg/kg or 0.5 mg/kg for a daily administration for three weeks. The continuous administration of diuretics causes a net deficit of sodium ions in the body, but renal compensation mechanisms adjust sodium excretion in line with sodium intake. This phenomenon is known as “diuretic braking”. […] In the experimental studies described above, carried out on healthy dogs, the modification of urinary sodium excretion by torasemide is evaluated by calculating urinary sodium clearance according to the following equation: Urinary sodium concentration×total urine volume/plasma sodium concentration

Data set [8] in a line: urinary potassium clearance in treated healthy dogs. To be noted: first day of treatment, low-dose torasemide compared with other treatments; FIG. 5. Type of data set: in vivo, female Beagle dogs. The procedure:
Several criteria were evaluated in order to determine the efficacy of this dosage: • urine volume • water consumption • urinary sodium clearance • urinary potassium clearance • osmolar clearance • free-water clearance • urinary fraction excretion of sodium • urinary fraction excretion of potassium. […] The following measurements are carried out: • →urine: volume, pH, creatinine, osmolarity, sodium, potassium; • →plasma: sodium, potassium, urea, aldosterone. The excretion of potassium ions in the urine of the treated dogs was measured over a period of 24 hours, and is presented in FIG. 5.

Data set [9] can be described thus: plasma creatinine and creatinine clearance (innocuousness). Type of data set: in vivo, female Beagle dogs. The following applies: torasemide 0.05 mg/kg/day. On the procedure: Other criteria were evaluated in order to determine the safety of this dosage: • plasma creatinine • creatinine clearance • plasma urea • plasma aldosterone. […] The following measurements are carried out: • →urine: volume, pH, creatinine, osmolarity, sodium, potassium; • →plasma: sodium, potassium, urea, aldosterone.

Data set [10] in a line: plasma urea concentration (innocuousness). Type of data set: in vivo, female Beagle dogs. The following applies: FIG. 7.
A short description of data set [11]: plasma aldosterone concentration (innocuousness). The data set is classed as in vivo, female Beagle dogs. To be noted: FIG. 8.
Data set [12] is described as follows: urinary fractional excretion of sodium (FENa) in healthy dogs. Type of data set: in vivo, female Beagle dogs. The following applies: single (0.05 or 0.5 mg/kg) and repeated administrations for three weeks; FIGS. 9 and 10. From the text:
One of the solutions for making the link between clinical and experimental is the calculation of the fractional excretion of sodium. This value is the ratio of the urinary sodium clearance to the urinary creatinine clearance. It requires assaying the creatinine in the plasma and in the urine, and also assaying the sodium in the plasma and the urine also, which is entirely envisionable “in the field”. This fractional excretion of sodium (FENa) represents the percentage of sodium filtered by the kidney that is finally excreted in the urine. It is determined using equation 1 below: where Naurine and […] are the sodium concentrations in the urine and the plasma, respectively, and Creatinineplasma and Creatinineurine are the creatinine concentrations in the plasma and the urine, respectively. The fractional excretion of sodium is the sodium excretion divided by the glomerular filtration rate (GFR), the GFR being estimated by the creatinine clearance.

For data set [13] the following is noted: 0.2 mg/kg/day in the morning for 28 days, dogs with congestive heart failure; cited from earlier work.
The mark [14] stands for this setting: high dose of torasemide (0.5 mg/kg/day), D18 and D28.
Where [15] appears, read: low dose of torasemide (0.05 mg/kg/day).

On to `NS(=O)(=O)c1cc(C(=O)O)c(NCc2ccco2)cc1Cl` [furosemide], for which the urine volume entry in data set [1] (furosemide 5 mg/kg/day, from first day (D7), maintained over three weeks) is recorded as “clear increase”. Moreover, in [2] (furosemide 5 mg/kg/day, especially D18 and D28), the “water consumption over a period of 24 h” value is listed as “clear increase”. Besides, the “dose-effect relationship for diuretic effect and ion secretion” value in data set [3] is “relationship between the dose administered and the size of the diuretic effect and of the ion secretion”. In addition, the diuretic resistance entry in data set [4] is recorded as “develop “diuretic resistance””. The “time after administration at which the diuretic effect decreases” value in data set [5] (furosemide) is 6 h. The “time after administration at which the diuretic effect appears” value in data set [5] (torasemide 0.2 mg/kg) is “approximately 1 hours”. For the same molecule, the “clinical state of the disease” value in data set [6] is listed as “maintain the disease in a stable state”.

In the case of `Cc1cccc(Nc2ccncc2S(=O)(=O)NC(=O)NC(C)C)c1` [torasemide, N-[(isopropyl-amino)carbonyl]-4-[(3-methylphenyl)amino]pyridine-3-sulfonamide], in data set [7] (dogs in good health, single dose of 0.5 mg/kg), the diuretic braking effect entry was “occurs”. Besides, in data set [7] (repeated administrations, high dose of torasemide 0.5 mg/kg/day, FIG. 2), the “net effect over the course of 24 hours on urinary sodium clearance” value was “no net effect”. Besides, the “effect on urinary sodium clearance” value in [7] (repeated administrations, low dose of torasemide 0.05 mg/kg, D7, D18, D28, FIG. 2) is recorded as “effect that was clearly visible”. The “overall effect on sodium clearance over the course of 24 hours” value in data set [7] (single dose, low dose 0.05 mg/kg compared with high dose 0.5 mg/kg, FIG. 1) is given as “higher than the overall effect of the high dose of torasemide (0.5 mg/kg)”. Moreover, the urine volume result in data set [1] (torasemide 0.05 mg/kg/day, D7, D18, D28) is given as “do not show any change”; in data set [1] (torasemide 0.5 mg/kg/day, from first day (D7), maintained over three weeks), “clear increase”. Further, the “water consumption over a period of 24 h” value in data set [2] (torasemide 0.05 mg/kg/day) is given as “only a small change”; in data set [2] (torasemide 0.5 mg/kg/day, especially D18 and D28) it was “clear increase”. Moreover, in data set [8], the “effect on potassium ion excretion in the urine” value is “lower than with the other treatments”. In data set [9] (whatever the day of the sample), the plasma creatinine concentration result is on record as “no effect”. Also, the creatinine clearance entry in data set [9] (FIG. 6) is “no effect”. Besides, in data set [10] (setting [14]), the plasma urea concentration entry is recorded as “increase”. In [10] (setting [15]), the “increase in plasma urea concentration” value is recorded as “not observed”. For the same molecule, the plasma aldosterone concentration entry in data set [11] (setting [14]) is “increase”. The “increase in plasma aldosterone concentration” value in data set [11] (setting [15]) is reported as “not observed”. Moreover, the “fractional excretion of sodium” value in [12] is listed as “in agreement with those obtained by directly measuring the urinary sodium clearance”. Moreover, the “dose-effect relationship for diuretic effect and ion secretion” value in data set [3] was “relationship between the dose administered and the size of the diuretic effect and of the ion secretion”. Also, in data set [4], the diuretic resistance result is “this resistance does not occur”. In [4], the plasma creatinine concentrations entry was “increase in plasma creatinine concentrations”. Moreover, the “potassium excretion in the urine” value in data set [5] (sick dogs, after 7 days, compared with furosemide) is given as “less than that observed for the dogs treated with furosemide”; in [13], “increased”. Also, the “persistence of the diuretic effect” value in [5] (torasemide 0.2 mg/kg) was 12 h. Also, in data set [13], the sodium excretion result is recorded as “not increased”. In addition, in data set [6], the “clinical state of the disease” value is given as “maintain the disease in a stable state”. For the same molecule, the “diuretic effect compared with furosemide” value in [6] (torasemide 0.5 mg/kg/day vs furosemide 5.13 mg/kg/day) is “better diuretic effect”.

The values above are taken from patent publication US20170105979A1, “USE OF A TORASEMIDE-BASED VETERINARY COMPOSITION FOR LOW-DOSE ADMINISTERING” (VIRBAC, priority 2014, published 2017).
